Laboratory results from publication PMC11928584, “H105A peptide eye drops promote photoreceptor survival in murine and human models of retinal degeneration” (Communications Medicine, 2025).
Where a SMILES comes first, the peptide text is derived from it.

Assays:
[1] = target: T1, recombinant human PEDF-R[1–288] (Homo sapiens, UniProt Q96AD5); experiment: Phospholipase A2 activity assay (EnzChek); format: biochemical; conditions: purified recombinant PEDF-R in the presence of peptides
T1 construct: SUMOstar (N); His tag (N); made in house; host or cells: Escherichia coli Rosetta(DE3), co-transformed with pGro7 (groES-groEL)
T1 sequence (Q96AD5 1-288): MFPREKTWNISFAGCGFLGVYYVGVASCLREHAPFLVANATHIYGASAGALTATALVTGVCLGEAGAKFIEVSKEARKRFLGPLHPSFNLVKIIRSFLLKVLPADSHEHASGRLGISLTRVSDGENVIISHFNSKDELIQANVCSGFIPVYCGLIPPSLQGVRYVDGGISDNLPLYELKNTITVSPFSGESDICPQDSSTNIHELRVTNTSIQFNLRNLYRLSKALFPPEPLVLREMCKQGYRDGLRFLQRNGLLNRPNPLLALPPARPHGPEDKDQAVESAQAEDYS
Description: To obtain the PEDF-R protein, the following procedure was followed. For plasmid construction, the plasmid used for expression was pE-SUMOstar-PEDF-R[1–288] C-terminal TwinStrep tagged. This plasmid contained the coding sequence for the human PEDF-R open reading frame between positions 1 and 288. For transformation: The expression plasmid and pGro7(groES-groEL) were co-transformed into Escherichia coli Rosetta(DE3) to obtain colonies for recombinant protein expression[34],[35]. The transformed cells were plated on Luria-Bertani (LB) agar plate containing 10 μg/ml chloramphenicol and 100 µg/ml ampicillin followed by overnight incubation at 37 °C to obtain colonies. A total of 100 ml of LB media containing 10 μg/ml chloramphenicol and 100 µg/ml ampicillin was inoculated with a single colony and incubated at 37 °C with vigorous shaking overnight. Then, 1 liter of LB media containing 0.5 mg/ml L-(+) arabinose, 2% D-(+)-Glucose, 10 μg/ml chloramphenicol and 100 µg/ml ampicillin was inoculated with 2% of the overnight culture and incubated at 37 °C with vigorous shaking until the O.D.600 nm reached 0.5-0.6. […]
Phospholipase A2 (PLA2) activity was determined using EnzChek™ Phospholipase A2 Assay Kit (Thermo Fisher Scientific, cat. E10217) according to the manufacturer’s instructions and as described before. […] Fluorescence emission was measured at 515 nm with excitation at 460 nm. […]

[2] = system: rod photoreceptor outer segments of RhoP23H/+ mice; experiment: OS thickness labelled by rhodopsin, RhoP23H/+ mice; format: in vivo, mouse; conditions: Fig 6e
Description: Eyes from Rho^P23H/+ mice eyes were enucleated and fixed in Davidson’s fix (8% formaldehyde (Merck, cat. F8775), 32% ethanol (Carlo Erba, cat. 414608), 10% acetic acid (Merck, cat. 695092)) over-night. After embedding in paraffin, 14 μm sections were collected. For TUNEL, sections were treated with […] Citrate Buffer pH 6 (10 mM Tri-sodium citrate (Carlo Erba, cat. 368007)), 0.2 mM citric acid (Merck, cat: 251275) in microwave for 5 min, then labeling was performed for one h at 37 °C using the In Situ Cell Death Detection Kit (Merck, cat. 12156792910). Rod photoreceptors were labeled with anti-RHO 1D4 antibody followed by Alexa Fluor 568 anti-mouse secondary antibody. Cone photoreceptors were labeled with anti-Opsin Blue (Merck, cat. AB5407) and anti-Opsin Red/Green (Merck, cat. AB5405). GFP localization in control transduced retinas was identified with specific anti-GFP antibody and Alexa Fluor 488 anti-mouse secondary antibody. Microglial cell labeling was performed using anti-Iba1 antibody (Wako, cat. 019-19741). For nuclear staining, 0.1 μg/ml DAPI was used. Slides were mounted with Mowiol 4–88 (Merck) and images acquired with a Zeiss Axio Imager A2 fluorescence microscope. To count TUNEL positive cells the RETINA Analysis Tool kit for ImageJ was used[37].
Fig. 6 Effects of eye drops containing H105A peptide in the photoreceptors of Rho^P23H/+ mice. a Scheme of experimental design. Daily peptide eye drops (5 µl of 1 mg/ml peptide) were applied to mice starting at P14 until P19 when immunofluorescence of retinal cross sections was performed. The contralateral control eyes were treated with vehicle HBSS. RE and LE refer to the right and left eyes, respectively. b Immunostaining was performed with antibodies against BAX or BCL2 (green), and DAPI (blue). Histograms show quantification of immunofluorescence intensity for BAX and BCL2 markers. […] Each individual data point represents the average of five (n = 5) retinas ± SD, with statistical significance determined between H105A and vehicle by paired t-test (****p < 0.0001). […] Statistical significance between H105A and untreated is indicated by ∗p ≤ 0.05, and ∗∗p ≤ 0.01. […] Presented as average ± SD, with statistics performed using One-way ANOVA Šídák’s multiple comparisons test. ∗p ≤ 0.05

Question: `CC[C@H](C)[C@H](NC(=O)[C@H](CC(C)C)NC(=O)[C@H](CC(=O)O)NC(=O)[C@H](Cc1ccc(O)cc1)NC(=O)[C@H](Cc1ccc(O)cc1)NC(=O)[C@H](CC(C)C)NC(=O)[C@H](C)NC(=O)[C@H](CCCNC(=N)N)NC(=O)[C@H](C)NC(=O)[C@@H](NC(=O)[C@@H](NC(=O)[C@H](CO)NC(=O)[C@H](CCC(=O)O)NC(=O)[C@@H](NC(=O)[C@H](CCCNC(=N)N)NC(=O)[C@@H](N)CCC(N)=O)[C@@H](C)O)[C@@H](C)CC)[C@@H](C)CC)C(=O)N[C@@H](CO)C(=O)O` [H105A] (H-QRTESIIARALYYDLIS-OH) was tested. Which “stimulation of PLA2 activity of PEDF-R” value [1] did it give?
Answer: functional effectors of PEDF-R

Question: And the Outer segments (OS) thickness ([2]; replicate 1 of 9)?
Answer: 14.6 µm

Question: And the Outer segments (OS) thickness ([2]; replicate 2 of 9)?
Answer: 11.1 µm

Question: And the Outer segments (OS) thickness ([2]; replicate 3 of 9)?
Answer: 16.1 µm

Question: And the Outer segments (OS) thickness ([2]; replicate 4 of 9)?
Answer: 15.5 µm

Question: And the Outer segments (OS) thickness ([2]; replicate 5 of 9)?
Answer: 14.5 µm

Question: What about the Outer segments (OS) thickness ([2]; replicate 6 of 9) of the same molecule?
Answer: 14.6 µm

Question: And the Outer segments (OS) thickness ([2]; replicate 7 of 9)?
Answer: 12.4 µm

Question: And the Outer segments (OS) thickness ([2]; replicate 8 of 9)?
Answer: 20.7 µm

Question: What about the Outer segments (OS) thickness ([2]; replicate 9 of 9) of the same molecule?
Answer: 16.5 µm
